In patent US20140011799A1 (Bristol-Myers Squibb Company, priority 2012, published 2014):

Key:
Endothelial lipase (EL) = target: T1, Endothelial lipase (EL) (Homo sapiens, UniProt Q9Y5X9); experiment: Endothelial lipase (EL) enzymatic assay, fluorescent substrate A10070 in DMPG vesicles; format: biochemical; conditions: EL from conditioned media of HT-1080 cells; compound preincubated 30 min at 37° C; read-out: EL IC50
T1 construct: HT-1080 cells that were transformed using RAGE technology (Athersys) to overexpress endogenous EL; endogenous in cells; conditioned medium used
T1 sequence (Q9Y5X9 21-500): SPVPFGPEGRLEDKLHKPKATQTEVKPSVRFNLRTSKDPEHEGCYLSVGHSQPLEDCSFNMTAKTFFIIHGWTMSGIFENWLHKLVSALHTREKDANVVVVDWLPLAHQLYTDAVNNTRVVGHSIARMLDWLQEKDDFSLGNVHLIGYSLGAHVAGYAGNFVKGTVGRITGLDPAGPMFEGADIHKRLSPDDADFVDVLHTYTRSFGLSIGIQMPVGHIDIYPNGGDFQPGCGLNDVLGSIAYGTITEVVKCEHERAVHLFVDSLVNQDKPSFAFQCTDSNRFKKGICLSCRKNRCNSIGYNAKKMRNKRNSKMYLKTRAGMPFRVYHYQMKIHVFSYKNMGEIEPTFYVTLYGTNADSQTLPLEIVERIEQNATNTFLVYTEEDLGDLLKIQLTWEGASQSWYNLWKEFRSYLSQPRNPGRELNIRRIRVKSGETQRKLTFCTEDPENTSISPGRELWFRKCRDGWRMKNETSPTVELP
Procedure, shortened: (§1)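 Compounds were preincubated with enzyme for 30 min at 37° C before FRET-substrate vesicles (A10070 in DMPG, 0.11 mole fraction) were added. Reaction rates were obtained from the 300–900 sec slope of fluorescence at 490/530 nm.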

hepatic lipase (HL) = target: T2, hepatic lipase (HL) (Homo sapiens, UniProt P11150); experiment: Hepatic lipase (HL) enzymatic assay, fluorescent substrate A10070 in DMPG vesicles; format: biochemical; conditions: HL partially purified from conditioned media of COS cells; compound preincubated 30 min at 37° C; read-out: HL IC50
T2 construct: made in house; host or cells: COS cells (conditioned medium, partially purified)
T2 sequence (P11150 23-499): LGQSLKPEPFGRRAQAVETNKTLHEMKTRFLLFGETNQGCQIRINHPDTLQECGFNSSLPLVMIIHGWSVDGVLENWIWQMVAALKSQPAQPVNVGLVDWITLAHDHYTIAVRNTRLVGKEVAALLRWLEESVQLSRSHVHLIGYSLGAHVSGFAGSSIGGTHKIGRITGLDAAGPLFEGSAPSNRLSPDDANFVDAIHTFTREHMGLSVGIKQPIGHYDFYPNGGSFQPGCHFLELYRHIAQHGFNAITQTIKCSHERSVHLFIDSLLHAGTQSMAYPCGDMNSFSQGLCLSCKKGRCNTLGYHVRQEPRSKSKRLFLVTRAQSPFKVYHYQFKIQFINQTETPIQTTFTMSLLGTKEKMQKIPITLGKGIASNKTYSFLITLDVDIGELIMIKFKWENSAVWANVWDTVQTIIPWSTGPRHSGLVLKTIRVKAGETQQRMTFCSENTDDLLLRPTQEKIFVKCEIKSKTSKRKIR
Procedure, shortened: as §1

Row | Compound | IC50 (Endothelial lipase (EL)) | IC50 (hepatic lipase (HL))
1 | COCc1ccc(-c2ccc3nc(C(c4nnc(CNS(N)(=O)=O)o4)S(=O)(=O)Cc4cccc(F)c4)sc3c2)cc1 (centres unmarked) [Example 241, N-({5-[(3-fluorophenyl)methanesulfonyl({6-[4-(methoxymethyl)phenyl]-1,3-benzothiazol-2-yl})methyl]-1,3,4-oxadiazol-2-yl}methyl)aminosulfonamide] | 1 nM | 1 nM
2 | CS(=O)(=O)C(c1nnc(CNS(N)(=O)=O)o1)c1nc2cc(-c3ccc(C(=O)N4CCOCC4)cc3)ccc2s1 (centres unmarked) [Example 243, N-({5-[methanesulfonyl({5-[4-(morpholine-4-carbonyl)phenyl]-1,3-benzothiazol-2-yl})methyl]-1,3,4-oxadiazol-2-yl}methyl)aminosulfonamide] | 5 nM | 119 nM
3 | CS(=O)(=O)C(c1nnc(CNS(N)(=O)=O)o1)c1nc2cc(-c3cncnc3)ccc2s1 (centres unmarked) [Example 247, N-[(5-{methanesulfonyl[5-(pyrimidin-5-yl)-1,3-benzothiazol-2-yl]methyl}-1,3,4-oxadiazol-2-yl)methyl]aminosulfonamide] | 4 nM | 43 nM
4 | CS(=O)(=O)C(c1nnc(CNS(N)(=O)=O)o1)c1nc2cc(-c3ccccc3)ccc2s1 (centres unmarked) [Example 249, N-({5-[methanesulfonyl(5-phenyl-1,3-benzothiazol-2-yl)methyl]-1,3,4-oxadiazol-2-yl}methyl) aminosulfonamide] | 1 nM | 1 nM
5 | COCCS(=O)(=O)C(c1nnc(CC(=O)NC2CC2)o1)c1nc2ccc(-c3ccc(F)nc3)cc2s1 (centres unmarked) [Example 250, N-cyclopropyl-2-(5-{[6-(6-fluoropyridin-3-yl)-1,3-benzothiazol-2-yl] (2-methoxyethanesulfonyl)methyl}-1,3,4-oxadiazol-2-yl)acetamide] | 194 nM | 306 nM
6 | CS(=O)(=O)C(c1nnc(CNS(N)(=O)=O)o1)c1nc2ccc(-c3cccc(C(=O)N4CC(F)(F)C4)c3)cc2s1 (centres unmarked) [Example 251, N-{[5-({6-[3-(3,3-difluoroazetidine-1-carbonyl)phenyl]-1,3-benzothiazol-2-yl} (methanesulfonyl)methyl)-1,3,4-oxadiazol-2-yl]methyl} aminosulfonamide] | 9 nM | 21 nM
7 | CS(=O)(=O)C(c1nnc(CNS(N)(=O)=O)o1)c1nc2ccc(-c3cccc(C(=O)N4CC(O)C4)c3)cc2s1 (centres unmarked) [Example 252, N-{[5-({6-[3-(3-hydroxyazetidine-1-carbonyl)phenyl]-1,3-benzothiazol-2-yl} (methanesulfonyl)methyl)-1,3,4-oxadiazol-2-yl]methyl}aminosulfonamide] | 10 nM | 22 nM
8 | CS(=O)(=O)C(c1nnc(CNS(N)(=O)=O)o1)c1nc2ccc(-c3cccc(C(=O)N4CCC(O)CC4)c3)cc2s1 (centres unmarked) [Example 255, N-{[5-({6-[3-(4-hydroxypiperidine-1-carbonyl)phenyl]-1,3-benzothiazol-2-yl} (methanesulfonyl)methyl)-1,3,4-oxadiazol-2-yl]methyl} aminosulfonamide] | 2 nM | 46 nM

Further compounds by falling IC50 (Endothelial lipase (EL)), results first:

Row | IC50 (Endothelial lipase (EL)) | IC50 (hepatic lipase (HL)) | Compound
9 | 10 nM | 29 nM | CS(=O)(=O)C(c1nnc(CNS(N)(=O)=O)o1)c1nc2ccc(-c3cccc(C(=O)NCCO)c3)cc2s1 (centres unmarked) [Example 257, N-(2-hydroxyethyl)-3-{2-[methanesulfonyl({5-[(sulfamoylamino)methyl]-1,3,4-oxadiazol-2-yl})methyl]-1,3-benzothiazol-6-yl}benzamide]
10 | 9 nM | 6 nM | CS(=O)(=O)C(c1nnc(CNS(N)(=O)=O)o1)c1nc2cc(-c3ncccn3)ccc2s1 (centres unmarked) [Example 246, N-[(5-{methanesulfonyl[5-(pyrimidin-2-yl)-1,3-benzothiazol-2-yl]methyl}-1,3,4-oxadiazol-2-yl)methyl]aminosulfonamide]
11 | 8 nM | 72 nM | Cn1ccc(-c2ccc3sc(C(c4nnc(CNS(N)(=O)=O)o4)S(C)(=O)=O)nc3c2)cc1=O (centres unmarked) [Example 245, N-[(5-{methanesulfonyl[5-(1-methyl-2-oxo-1,2-dihydropyridin-4-yl)-1,3-benzothiazol-2-yl]methyl}-1,3,4-oxadiazol-2-yl)methyl]aminosulfonamide]
12 | 8 nM | 35 nM | CS(=O)(=O)C(c1nnc(CNS(N)(=O)=O)o1)c1nc2ccc(-c3cccc(C(=O)NC4CCC(O)CC4)c3)cc2s1 (centres unmarked) [Example 258, N-(4-hydroxycyclohexyl)-3-{2-[methanesulfonyl({5-[(sulfamoylamino)methyl]-1,3,4-oxadiazol-2-yl})methyl]-1,3-benzothiazol-6-yl}benzamide]
13 | 8 nM | 37 nM | CC(C)NC(=O)c1cccc(-c2ccc3nc(C(c4nnc(CNS(N)(=O)=O)o4)S(C)(=O)=O)sc3c2)c1 (centres unmarked) [Example 259, 3-{2-[methanesulfonyl({5-[(sulfamoylamino)methyl]-1,3,4-oxadiazol-2-yl})methyl]-1,3-benzothiazol-6-yl}-N-(propan-2-yl) benzamide]
14 | 7 nM | 62 nM | CS(=O)(=O)C(c1nnc(CNS(N)(=O)=O)o1)c1nc2ccc(-c3cccc(C(=O)Nc4nnc(C(F)(F)F)o4)c3)cc2s1 (centres unmarked) [Example 253, 3-{2-[methanesulfonyl({5-[(sulfamoylamino)methyl]-1,3,4-oxadiazol-2-yl})methyl]-1,3-benzothiazol-6-yl}-N-[5-(trifluoromethyl)-1,3,4-oxadiazol-2-yl] benzamide]
15 | 5 nM | 26 nM | Cc1noc(C)c1-c1ccc2sc(C(c3nnc(CNS(N)(=O)=O)o3)S(C)(=O)=O)nc2c1 (centres unmarked) [Example 248, N-[(5-{[5-(dimethyl-1,2-oxazol-4-yl)-1,3-benzothiazol-2-yl] (methanesulfonyl)methyl}-1,3,4-oxadiazol-2-yl)methyl] aminosulfonamide]
16 | 5 nM | 17 nM | CS(=O)(=O)C(c1nnc(CNS(N)(=O)=O)o1)c1nc2ccc(-c3cccc(C(=O)N4CCC(F)(F)CC4)c3)cc2s1 (centres unmarked) [Example 254, N-{[5-({6-[3-(4,4-difluoropiperidine-1-carbonyl)phenyl]-1,3-benzothiazol-2-yl} (methanesulfonyl)methyl)-1,3,4-oxadiazol-2-yl]methyl} aminosulfonamide]
17 | 3 nM | 7 nM | CC(C)(C)CNC(=O)c1cccc(-c2ccc3nc(C(c4nnc(CNS(N)(=O)=O)o4)S(C)(=O)=O)sc3c2)c1 (centres unmarked) [Example 260, N-(2,2-dimethylpropyl)-3-{2-[methanesulfonyl({5-[(sulfamoylamino)methyl]-1,3,4-oxadiazol-2-yl})methyl]-1,3-benzothiazol-6-yl}benzamide]
18 | 2 nM | 16 nM | CS(=O)(=O)C(c1nnc(CNS(N)(=O)=O)o1)c1nc2ccc(-c3cccc(C(=O)Nc4nncs4)c3)cc2s1 (centres unmarked) [Example 256, 3-{2-[methanesulfonyl({5-[(sulfamoylamino)methyl]-1,3,4-oxadiazol-2-yl})methyl]-1,3-benzothiazol-6-yl}-N-(1,3,4-thiadiazol-2-yl)benzamide]
19 | 1 nM | 1 nM | COCc1ccc(-c2ccc3nc(C(c4nnc(CNS(N)(=O)=O)o4)S(=O)(=O)Cc4ccc(F)cc4)sc3c2)cc1 (centres unmarked) [Example 242, N-({5-[(4-fluorophenyl)methanesulfonyl ({6-[4-(methoxymethyl)phenyl]-1,3-benzothiazol-2-yl})methyl]-1,3,4-oxadiazol-2-yl}methyl) aminosulfonamide]
